Experiments:
[1] = test system: β-galactosidase-enriched B16 melanoma cells; test: Conversion of (6) to Imiquimod by β-galactosidase-enriched B16 cells, LC-MS/MS; format: cell-based, murine
Method: (§1) For LC-MS/MS experiments, mobile phase A consisted of 0.05% formic acid and 0.2% acetic acid in water, and mobile phase B comprised 90% acetonitrile, 9.9% water, and 0.1% formic acid. Using a flow rate of 400 μL/min, mobile phase B 5% isocratic for 0.5 min, before gradient to 95% B over 2.2 min, followed by 95% isocratic for 0.1 min. The total chromatographic assay time (including time to equilibrate for the next run) was 4.0 min per sample. Optimized mass spectrometer parameters were as follows: collision gas, 20 psig; curtain gas, 20 psig; ion source gas 1, 60 psig; ion source gas 2, 40 psig; ion spray voltage, 5500 V; desolvation temperature, 600° C.; declustering potential, 70 V; entrance potential, 10 V; collision energy, 50 V; collision cell exit potential, 10 V. The substrate was detected using multiple reaction monitoring mode by monitoring the m/z fragmentation from 597.8 to 241.2 Da for (6) and the Imiquimod product was monitored for 241.2 to 185.1 Da fragmentation.
Murine melanoma cells (B16-F10, 5×10^6 cells) were removed from cell culture and pelletized via centrifuge (200 RCF, 0° C., 10 min). The supernatant was removed from the cell pellet, and cells were suspended in 1.5 mL of complete culture media (10% HI-FBS in DMEM) or preservative free FACS solution (10% HI-FBS in DPBS) that was pre-chilled on ice. Next, 15 μL of 0.5 mg/mL biotinylated α-gp-100 antibody (Abcam, UK) was added to the suspended cells, and the suspension was incubated on ice for 30 min with occasional shaking. Cells were then pelletized (200 RCF, 10 min, 0° C.) and washed 4 times each with 10 mL of chilled preservative free FACS solution (10% HI-FBS in DPBS). Washing Procedure: The cell pellet was suspended in 10 mL of FACS and centrifuged (200 RCF, 0° C., 10 min). Supernatant was removed from pellet, and the cells were suspended in subsequent chilled FACS solution for 1 min with constant shaking before this procedure was repeated. […] Enzyme enrichment (20-350 pU/cell) was quantified as average increase in enzymatic activity per cell determined by NPG colorimetric assay.

AT3B1 cells = test: Conversion of pro-immunostimulant to Imiquimod by α-Mannosidase or AT3B-1 cells, LC-MS/MS; format: cell-based, rat; details: α-Mannosidase 0.1 U/mL or AT3B1 cells, 0-48 h
Method: To concretely determine the conversion of pro-immunostimulant (compound 6) to Imiquimod in the presence of α-Mannosidase over time for exogenous and endogenous experiments, 20 μL aliquots of 100 μM (pro-immunostimulant (compound 6)) in DMEM were incubated with 180 μL of either α-Mannosidase (0.1 U/mL, 37° C., 5% CO2), or AT3B1 cells (1×105, or 5×105, or 1×10^6 cells, 37° C., 5% CO2) without the addition of exogenous enzyme as shown by FIG. 6. To stop the reaction at the specified time points (0, 1, 2, 3, 6, 12, 24, and 48 h), 50 μL AO Quench Internal Standard (20 μg/mL, 2-methyl-4(3H)-quinazolinone in 1 M formic acid) was added to each individual reaction. Samples were then analyzed via LC-MS/MS.
The AT3B-1 cell line (ATCC CRL-2375, rat prostate epithelial malignant carcinoma) were grown in complete culture media composed of Roswell Park Memorial Institute (RPMI) 1640 medium with 4.5 g/L glucose, 2 mM L-glutamine, 10,000 U/mL penstrep, 10 mM HEPES and supplemented with 10% HI-FBS and 1 μM doxorubicin. Media was changed every 3-4 days omitting the doxorubicin, and cells were passaged once per week. Passaging involved changing media, counting, and seeding 3×10^5 cells in 35 mL of new complete media in a new T-175 culture flask.
α-Mannosidase from Canavalia ensiformis (Jack bean) was used directly from the bottle to make a 1 U/mL stock solution in DPBS. […]

β-galactosidase = β-galactosidase (Escherichia coli, UniProt P00722); test: Conversion of Imiquimod-β-galactopyranoside (6) to Imiquimod by exogenous β-galactosidase, LC-MS/MS; format: biochemical, E. coli
Method: as §1
To confirm the chemical identity of Imiquimod liberated by β-gal-mediated conversion of (6), an end-point assay was performed using 1 U of β-gal in 200 μL of 10 μm (6) incubated for 16 h (37° C., 5% CO2). To stop the reaction, 50 μL AO Quench Internal Standard (20 μg/mL 2-methyl-4(3H)-quinazolinone in 1 m formic acid) was added to the reaction. This aliquot was compared to a 200 μL sample of 10 μm (6) without β-gal enzyme.
To determine the conversion of Imiquimod-β-Galactopyranoside (6) to Imiquimod in the presence of β-gal over time for exogenous experiments, aliquots (200 μL) of (6) at a concentration of 5 μm in DPBS were incubated with β-gal (1 U, 37° C., 5% CO2). To stop the reaction at the specified time points (0, 1, 2 min), 50 μL AO Quench Internal Standard (20 μg/mL 2-methyl-4(3H)-quinazolinone in 1 m formic acid) was added to each individual reaction. Depletion of (6) was measured by LC-MS/MS for each time point. […] Similar to above, aliquots of (6) for various time points (0, 0.25, 0.5, 1, 2, 3 h) were tested for conversion to immunostimulant by exogenous β-galactosidase.
β-galactosidase from E. coli was diluted with sterile Dulbecco's Phosphate Buffer Saline (DPBS) to an initial concentration of 5,000 U/mL. Aliquots of this stock were diluted with additional DPBS to a concentration of 500 U/mL and 5 mU/mL. Because of the E. coli source for β-galactosidase, samples were filtered with a sterile 0.2 μm syringe filter to guard against potential residual bacteria. Absence of bacteria was confirmed prior to use; filtered samples were plated on an agar plate and incubated for 3 days (37° C., 5% CO2). No bacterial growth was observed from the filtered enzyme.

Sequence of β-galactosidase (P00722 2-1024): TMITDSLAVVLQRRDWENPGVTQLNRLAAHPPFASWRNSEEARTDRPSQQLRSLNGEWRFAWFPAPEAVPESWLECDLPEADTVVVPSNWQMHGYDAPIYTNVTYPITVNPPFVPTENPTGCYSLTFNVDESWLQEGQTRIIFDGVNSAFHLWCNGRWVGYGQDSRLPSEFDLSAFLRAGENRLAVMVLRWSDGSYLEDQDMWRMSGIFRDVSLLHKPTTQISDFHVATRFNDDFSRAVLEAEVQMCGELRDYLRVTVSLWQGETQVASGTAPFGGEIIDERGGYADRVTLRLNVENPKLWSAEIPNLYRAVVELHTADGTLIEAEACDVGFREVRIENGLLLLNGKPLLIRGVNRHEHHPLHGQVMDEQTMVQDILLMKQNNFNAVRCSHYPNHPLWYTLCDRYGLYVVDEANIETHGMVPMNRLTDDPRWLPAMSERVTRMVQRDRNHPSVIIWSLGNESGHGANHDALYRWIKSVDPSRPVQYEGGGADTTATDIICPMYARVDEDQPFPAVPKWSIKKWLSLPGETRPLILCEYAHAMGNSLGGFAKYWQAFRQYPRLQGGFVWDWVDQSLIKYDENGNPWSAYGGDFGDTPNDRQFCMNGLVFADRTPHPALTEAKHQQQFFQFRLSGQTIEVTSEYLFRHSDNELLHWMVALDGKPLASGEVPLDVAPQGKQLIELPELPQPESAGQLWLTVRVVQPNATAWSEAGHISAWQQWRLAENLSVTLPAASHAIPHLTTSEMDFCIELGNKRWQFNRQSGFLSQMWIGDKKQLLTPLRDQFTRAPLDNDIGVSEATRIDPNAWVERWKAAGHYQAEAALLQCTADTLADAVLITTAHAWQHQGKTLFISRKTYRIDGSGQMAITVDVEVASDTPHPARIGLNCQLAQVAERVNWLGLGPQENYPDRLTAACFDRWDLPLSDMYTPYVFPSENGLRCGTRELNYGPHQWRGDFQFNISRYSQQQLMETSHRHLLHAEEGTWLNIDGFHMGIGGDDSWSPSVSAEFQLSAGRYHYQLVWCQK

## 4-Imiquimod-2-nitrophenyl-galactopyranoside [compound 6]
[1]; β-galactosidase-enriched B16 cells (5 mU), over 3 h
  conversion of the compound: quantitative conversion
[1]; β-galactosidase-enriched B16 cells, 1×10^5 cells/well, 35 mU/well, 24 h
  conversion to Imiquimod: near quantitative conversion
[1]; β-galactosidase-enriched B16 cells, after 3 h
  conversion into Imiquimod: > 36%
AT3B1 cells
  conversion to Imiquimod and efflux: still being converted in the presence of enzyme and effluxed
β-galactosidase; 5 μm in DPBS, β-gal 1 U, 0, 1, 2 min
  depletion of (6): rapid depletion
β-galactosidase; 10 μm (6) without β-gal enzyme
  stability without β-gal enzyme (no residual Imiquimod observed): stable
β-galactosidase; exogenous β-galactosidase 5 mU, over 3 h
  conversion to Imiquimod (depletion of (6) and formation of Imiquimod): near quantitative conversion
β-galactosidase; β-galactosidase 1 U, 2 nmol (200 μL of 10 μm), 16 h, 37° C.
  conversion into Imiquimod: quantitative conversion
